{"source": "patent US6991777B2", "about": "“Methods for in vivo evaluation of physiological conditions and/or organ or system function including methods to evaluate cardiopulmonary disorders such as chronic heart failure using polarized 129 Xe” (Medi-Physics, Inc., priority 2001, dated 2006)", "origin": "cited, not measured here", "key": {"[1]": {"details": "dogs, whole lung"}, "[2]": {"details": "after inhalation into the lungs"}}}
{"smiles": "[Xe]", "note": "[polarized ^129Xe, Xenon-129]", "values": [{"measurement": "diffusion constant of xenon in water", "result": "about 2×10^−5 cm^2/s"}, {"measurement": "time constant τ (uptake and/or dissolved gas-exchange transit time), blood compartment", "setting": "[1]; blood compartment", "result": "~70", "unit": "ms"}, {"measurement": "time constant τ (uptake and/or dissolved gas-exchange transit time), tissue compartment", "setting": "[1]; tissue compartment", "result": "about 61 ms"}, {"measurement": "fraction of inhaled gas that transits into the pulmonary blood", "setting": "[2]", "result": "roughly 0.3 % per/second"}, {"measurement": "time until Xe begins to dissolve into the pulmonary blood stream", "setting": "[2]", "result": "under 100 ms"}]}
